Experimental data: publication PMC6736360, “P-Glycoprotein–Mediated Efflux Reduces the In Vivo Efficacy of a Therapeutic Targeting the Gastrointestinal Parasite Cryptosporidium” (The Journal of Infectious Diseases, 2019)
Where two headings read alike, the source gives them in different places. Values belong to the molecule of their own block, whether it stands above or below them.

Tests used:
[1] = system: C. parvum; set-up: method as in PMID 28329187; conditions: previously published study; cited from earlier work
[2] = system: C. parvum; assay: Hollow fiber in vitro Cryptosporidium culture with polarized HCT-8 cells; type: cell-based, Cryptosporidium parvum
Experimental: C. parvum was cultured using a hollow fiber bioreactor modified for evaluation of potential chemotherapeutic compounds [[21–23]]. Briefly, the system used a 20-kD MWCO polysulfone fiber cartridge (FiberCell Systems, Frederick, MD). HCT-8 cells were grown on the outer surface of the fibers (extracapillary space), and reservoirs were used to provide nutrients to the cells. When the glucose concentration decreased to at least 2 g/L, the extracapillary space was inoculated with 10^6C. parvum (Iowa isolate, Bunch Grass Farms, Deary, ID). […] Compound concentration was reduced over time by the flow of medium through the extracapillary and intracapillary spaces. Samples were removed from the extracapillary space once per day for evaluation of parasite numbers.
C. parvum growth was determined by analysis of the amount of C. parvum 18S-rRNA present and compared to the HCT-8 18S-rRNA as previously described^3. Briefly this was performed by centrifugation at 14,000 x g for 5 min of 0.5 mL samples collected from the extracapillary space (ECS). The pellet was resuspended in 100 µL of iScript buffer and subject to 6-freeze/thaw cycles comprising 1 min in liquid nitrogen followed by 1.5 min at 70 °C. The lysate was collected by centrifugation at 16,162 x g for 5 min, and the RNA purified according to the manufacturer’s instructions (iScriptTM, RT-qPCR sample preparation kit, Bio-Rad Laboratories). C. parvum was enumerated by quantitating the Cp18S-rRNA using the following specific forward and reverse primers - Cp18S-995F: 5’-[…]-3’ and Cp18S-1206R: 5’-[…]-3’ and compared to the human Hs18S-rRNA using the following primer sets - Hs18S-F1373: 5’-[…]-3’ and Hs18S-R1561: 5’-[…]-3’. The amount of 18S-rRNA was determined using 5 ng samples by RT-qPCR as described the manufacturer instructions using a Luna Universal One-Step® RT-qPCR kit (New England Biologics) and a Quant Studio 6 Flex 44 instrument. The cell number is calculated from the CT means using a set of standards prepared from 10^4, 10^5, and 10^6 C. parvum oocysts and compared to 10^4, 10^5, and 10^6 HCT-8 cells.

[3] = system: Cryptosporidium; set-up: method as in PMID 28329187; conditions: cited from earlier work
[4] = biological target: T1, P-gp (Homo sapiens, UniProt P08183); assay: Caco-2 P-gp efflux assay +/- valspodar; type: in vitro ADME; conditions: Caco-2
T1 construct: endogenous in cells; host or cells: Caco-2 cells (clone C2BBe1, ATCC); assay run by Absorption Systems LP
T1 sequence (P08183 whole entry): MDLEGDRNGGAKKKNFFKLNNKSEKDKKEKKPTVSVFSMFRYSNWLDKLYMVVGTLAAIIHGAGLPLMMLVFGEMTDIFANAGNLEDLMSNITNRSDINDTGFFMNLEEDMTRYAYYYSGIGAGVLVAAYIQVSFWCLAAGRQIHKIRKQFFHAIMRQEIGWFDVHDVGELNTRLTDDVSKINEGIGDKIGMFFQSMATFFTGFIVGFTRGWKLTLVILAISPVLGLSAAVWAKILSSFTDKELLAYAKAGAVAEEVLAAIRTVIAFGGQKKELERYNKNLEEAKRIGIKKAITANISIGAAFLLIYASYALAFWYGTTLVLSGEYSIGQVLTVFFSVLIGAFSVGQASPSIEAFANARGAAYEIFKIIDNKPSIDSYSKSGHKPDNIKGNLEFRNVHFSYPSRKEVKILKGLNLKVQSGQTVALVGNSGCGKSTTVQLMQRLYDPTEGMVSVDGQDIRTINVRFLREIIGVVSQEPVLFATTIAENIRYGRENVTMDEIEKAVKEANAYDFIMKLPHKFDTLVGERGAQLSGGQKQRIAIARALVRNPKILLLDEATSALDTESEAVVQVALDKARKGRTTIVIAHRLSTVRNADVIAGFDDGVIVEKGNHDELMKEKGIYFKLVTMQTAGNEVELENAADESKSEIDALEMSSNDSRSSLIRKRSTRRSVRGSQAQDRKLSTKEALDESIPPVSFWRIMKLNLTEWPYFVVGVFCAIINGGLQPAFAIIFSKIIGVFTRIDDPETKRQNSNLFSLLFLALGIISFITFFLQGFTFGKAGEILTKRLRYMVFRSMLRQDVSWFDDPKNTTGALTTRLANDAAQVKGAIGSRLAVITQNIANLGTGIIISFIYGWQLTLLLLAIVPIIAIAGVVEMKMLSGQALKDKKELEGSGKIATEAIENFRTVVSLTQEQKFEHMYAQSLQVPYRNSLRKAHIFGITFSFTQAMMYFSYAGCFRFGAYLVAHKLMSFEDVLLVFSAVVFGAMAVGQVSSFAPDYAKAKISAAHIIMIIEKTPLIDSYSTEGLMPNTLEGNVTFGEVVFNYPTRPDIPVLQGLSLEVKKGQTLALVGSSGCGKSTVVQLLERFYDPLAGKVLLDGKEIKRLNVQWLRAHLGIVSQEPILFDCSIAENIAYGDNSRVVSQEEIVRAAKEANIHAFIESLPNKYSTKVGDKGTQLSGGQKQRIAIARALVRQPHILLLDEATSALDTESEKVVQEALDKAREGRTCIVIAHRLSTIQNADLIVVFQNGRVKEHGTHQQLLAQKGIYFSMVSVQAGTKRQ
Source text: Given the well-known role of P-gp in the efflux of many diverse drugs, the adenosine triphosphate–binding cassette (ABC) transporter was specifically chosen for initial studies, to identify the transporter responsible for BKI1318’s relatively low Papp. A Caco-2 system with overexpression of P-gp was used to verify the role of P-gp in BKI1318 transport (Supplementary Table 2). […] It should be noted that this experiment characterized the importance of P-gp with a single concentration of BKI1318. The kinetics of BKI1318 transport mediated by P-gp are still unknown, and it is not clear how the fraction of absorption mediated by P-gp transport will change with different concentrations of BKI1318.
(§1) To ensure no damage was inflicted to the cell monolayers during the flux period, lucifer yellow flux was also measured post-experimentally for each monolayer. To determine whether BKIs 1294, 1369, and 1318 were substrates of P-gp in vitro, P-gp efflux was characterized using the Caco-2 permeability assay protocol with a few modifications. The dosing solution concentration was 5 μM of BKI in the assay buffer +/- 1 μM valspodar. Cells were first pre-incubated for 30 minutes with HBSS containing +/- 1 μM valspodar. Cell monolayers were dosed on the apical side (A?B) or basolateral side (B?A), and incubated at 37°C with 5% CO2 in a humidified incubator. Samples were taken from the donor and receiver chambers at 120 minutes. Each determination was performed in duplicate.

[5] = Caco-2 trans-well apparent permeability assay; type: in vitro ADME; conditions: human, pH 7.4
Experimental: To initially characterize the permeability of BKIs 1294, 1369, and 1318, the software MedChem Designer (Simulations +, Lancaster, CA) was used to predict the Peff. The in vitro apparent permeability (Papp) was carried out by Absorption Systems LP (Exton, PA) with a Caco-2 trans-well assay. Caco-2 cells (clone C2BBe1) were obtained from American Type Culture Collection (Manassas, VA) were grown to confluence on collagen-coated, microporous membranes in 12-well assay plates. The permeability assay buffer was Hanks’ balanced salt solution (HBSS) containing 10 mM HEPES and 15 mM glucose at a pH of 7.4. The buffer in the receiver chamber also contained 1% bovine serum albumin. The dosing solution concentration was 5 µM BKI in assay buffer, and the cell monolayers were dosed on the apical side (A?B) or basolateral side (B?A) and incubated at 37°C with 5% CO2 in a humidified incubator. After 120 minutes, samples were taken from the donor and receiver chambers in duplicate. The Papp was calculated with equation (1) and the percent recovery with equation (2).
Papp = (dCr/dt) × Vr/(A × CA) (1)
Percent Recovery = 100 × ((Vr × Cr^final) + (Vd × Cd^final))/(Vd × […]) (2)
where dCr/dt is the slope of the cumulative concentration in the receiver compartment versus time in µM s^-1; Vr is the volume of the receiver compartment in cm^3; Vd is the volume of the donor compartment in cm^3; A is the area of the insert (1.13 cm^2 for 12-well); CA is the average of the nominal dosing concentration and the measured 120 minute donor concentration in µM; CN is the nominal concentration of the dosing solution in µM; Cr^final is the cumulative receiver concentration in µM at the end of the incubation period; Cd^final is the concentration of the donor in µM at the end of the incubation period.
as §1

[6] = system: Cryptosporidium parvum; assay: C. parvum growth inhibition, nonpolarized HCT-8 coculture assay; type: cell-based
Source text: Information regarding C. parvum growth inhibition by BKIs, the hollow fiber model, liquid chromatography–tandem mass spectrometry (LC-MS/MS) methods, and the interferon γ (IFN-γ) knockout (KO) mouse model of C. parvum infection has been described in detail previously [[15], [20–23]]. Information on BKI permeability, LC-MS/MS quantification of elacridar, and quantification of Cryptosporidium by polymerase chain reaction analysis is described in the Supplementary Materials. Unless noted otherwise, statistical significance was determined with an unpaired Student t test, using a significance level of 0.05.
To evaluate the potential impact of P-gp efflux on BKI1318 in vitro efficacy, in vitro assays with polarized and nonpolarized HCT-8 cells were evaluated. The nonpolarized HCT-8 coculture assay to screen anti-Cryptosporidium drug candidates has been previously reported by us in detail. […] Based on the reported elacridar half maximal inhibitor concentration for the inhibition of P-gp, the P-gp activity was predicted to be reduced with both elacridar concentrations. […] Elacridar alone had no effect on C. parvum levels.

[7] = In vitro solubility at pH 2 and 6.5; type: physicochemical; conditions: pH 2, represents stomach; read-out: Solubility (pH 2)
Experimental: Figure 1. Structures, in vitro efficacy, and physicochemical properties of bumped kinase inhibitors (BKIs). […] Solubilities for each BKI were measured at pH 2 and 6.5, to represent the stomach and small intestinal environments, respectively. The human effective permeability (Peff) was predicted as described in Materials and Methods.

[8] = system: C. parvum; assay: IFN-γ KO mouse model of Cryptosporidium infection; type: in vivo, mice; conditions: IFN-γ KO mice
Experimental: Efficacy in female IFN-γ KO mice (B6.129S7-Ifngtm1Ts/J; Jackson Laboratories) aged 8–10 weeks was evaluated as previously described. Beginning on day 6 after infection, mice were dosed with 30 mg/kg BKI1318 suspended in 0.2 mL of vehicle, 15 mg/kg elacridar in 0.1 mL of vehicle followed 15 minutes later by 30 mg/kg BKI1318 in 0.1 mL of vehicle, or 0.2 mL of vehicle only once daily for 5 days. Fecal specimens were collected daily from each group and weighed. Each fecal sample was checked for luminescence on the day of collection, and the number of relative light units was determined and normalized to fecal sample weights.

[9] = Mouse gastrointestinal tissue pharmacokinetics; type: in vivo, mice; conditions: mouse, oral; for AUC(0-t): read-out: AUC0-12; for Cmax: read-out: Observed Cmax; for Tmax: read-out: Tmax
Experimental: At multiple time points following BKI1318 administration, mice were euthanized, and the GI tract was separated into segments corresponding to the duodenum, jejunum, ileum, and cecum/colon. […] At 0.5, 1, 2, 4, 8, and 12 hours, three mice in each group were sacrificed by cervical dislocation, and the duodenum, jejunum, ileum, and cecum/ascending colon were immediately collected. Each section of the GI tract was flushed with Dulbecco's phosphate-buffered saline, weighed, and placed in storage at -80°C. On the day of homogenization, 0.9% NaCl was added to each sample to achieve 200 mg/mL tissue concentration. Samples were homogenized using a handheld motorized homogenizer (Fisher Scientific, Waltham, MA) on ice and stored at -20°C until extraction and analysis. To report tissue concentrations, 1 gram of tissue was estimated to be 1 mL of volume.

[10] = cecum/colon, elacridar in Cecum/Colon
[11] = duodenum, elacridar in Duodenum

P-gp Substrate Classification [4]: Negative | recovery at 120 min, 5 µM ([5]; Caco-2 assay, A→B for BKI 1294, read-out: Percent recovery): 62% | Papp A→B at 120 min, 5 µM ([5]; Caco-2, 5 µM, 120 minutes): 12.7 ×10⁻⁶ cm/s | Papp B→A at 120 min, 5 µM ([5]; Caco-2, 5 µM, 120 minutes): 22.6 ×10⁻⁶ cm/s | EC50 ([6]; Cryptosporidium parvum, HCT-8, in vitro, read-out: C. parvum EC50): 2700 nM | solubility [7]: > 100 µM
Structure (SMILES): CCOc1ccc2cc(-c3nn(CC4CCN(C)CC4)c4ncnc(N)c34)ccc2c1 [BKI1294]
C. parvum reduction in mouse model of cryptosporidiosis [1]: > 2 log | Reduction of C. parvum levels over the course of the study ([2]; hollow fiber model, polarized HCT-8 cells): > 3 orders of magnitude | Reduction in C. parvum level by 24 hours after the final dose, on day 4 ([2]; hollow fiber, once per day for 4 days, BKI1294 80 µM, BKI1369 40 µM): > 6 log | Efficacy in neonatal mouse model of Cryptosporidium infection [3]: efficacious

Papp A→B at 120 min, 5 µM ([5]; Caco-2, 5 µM, 120 minutes): 23.2 ×10⁻⁶ cm/s
Structure (SMILES): CC(C)NCC(O)COc1cccc2ccccc12 (stereo not drawn) [Propranolol, reference compound]

P-gp Substrate Classification [4]: Positive
Structure (SMILES): C[C@H]1O[C@@H](O[C@H]2[C@@H](O)C[C@H](O[C@H]3[C@@H](O)C[C@H](O[C@H]4CC[C@@]5(C)[C@H](CC[C@@H]6[C@@H]5C[C@@H](O)[C@]5(C)[C@@H](C7=CC(=O)OC7)CC[C@]65O)C4)O[C@@H]3C)O[C@@H]2C)C[C@H](O)[C@@H]1O [digoxin, reference compound]

AUC(0-t) [9, 10]: 12.6 ± 8.5 µM·h | Cmax [9, 10]: 3.3 ± 3.1 µM | Tmax [9, 10]: 6 h | AUC(0-t) [9, 11]: 118 ± 4.9 µM·h | Cmax [9, 11]: 61.2 µM | Tmax [9, 11]: 0.6 h | AUC(0-t) ([9]; ileum, elacridar in Ileum): 170 ± 45.7 µM·h | Cmax ([9]; ileum, elacridar in Ileum): 35.2 µM | Tmax ([9]; ileum, elacridar in Ileum): 1.7 h | AUC(0-t) ([9]; jejunum, elacridar in Jejunum): 104 ± 21.4 µM·h | Cmax ([9]; jejunum, elacridar in Jejunum): 32.6 µM | Tmax ([9]; jejunum, elacridar in Jejunum): 0.6 h
Structure (SMILES): COc1cc2c(cc1OC)CN(CCc1ccc(NC(=O)c3cccc4c(=O)c5cccc(OC)c5[nH]c34)cc1)CC2 [elacridar, reference compound]
Effect on C. parvum levels/growth ([2]; hollow fiber model, compound alone, 80 µM once daily): no effect | Effect on Cryptosporidium infection, administered alone [8]: no effect | Effect on C. parvum levels ([6]; nonpolarized HCT-8 cells, compound alone): no effect
